ChEMBL document CHEMBL1156106 (J Med Chem, 2009)

Key:
Rattus norvegicus [1] = test: Effect on behavioural activity in rat assessed as cocaine-induced lever response at 25 mg/kg, ip pretreated with cocaine for 335 mins by drug-discrimination studies; format: functional; conditions: route intraperitoneal
Rattus norvegicus [2] = test: Effect on behavioural activity in rat assessed as cocaine-induced lever response at 50 mg/kg, ip pretreated with cocaine for 335 mins by drug-discrimination studies; format: functional; conditions: route intraperitoneal
Mus musculus [3] = test: Antidepressant activity in ip dosed mouse assessed as time to reach peak stimulation of locomotor activity; format: functional
Mus musculus [4] = test: Antidepressant activity in ip dosed mouse assessed as duration of locomotor activity; format: functional
Mus musculus [5] = test: Antidepressant activity in ip dosed mouse assessed as stimulation of locomotor activity; format: functional
Mus musculus [6] = test: Antidepressant activity in ip dosed mouse assessed as stimulation of locomotor activity relative to cocaine; format: functional
Rattus norvegicus [7] = test: Effect on behavioural activity in rat assessed as cocaine-induced lever response at 10 mg/kg, ip pretreated with cocaine for 335 mins by drug-discrimination studies; format: functional; conditions: route intraperitoneal
Rattus norvegicus [8] = test: Effect on behavioural activity in rat assessed as cocaine-induced lever response at 100 mg/kg, ip pretreated with cocaine for 335 mins by drug-discrimination studies; format: functional; conditions: route intraperitoneal
Rattus norvegicus [9] = test: Effect on behavioural activity in rat assessed as cocaine-induced lever response at 2.5 mg/kg, po pretreated with cocaine for 360 mins by drug-discrimination studies; format: functional
Rattus norvegicus [10] = test: Effect on behavioural activity in rat assessed as cocaine-induced lever response at 5 mg/kg, po pretreated with cocaine for 180 mins by drug-discrimination studies; format: functional
Rattus norvegicus [11] = test: Effect on behavioural activity in rat assessed as cocaine-induced lever response at 80 mg/kg, po pretreated with cocaine for 360 mins by drug-discrimination studies; format: functional
Rattus norvegicus [12] = test: Effect on behavioural activity in rat assessed as cocaine-induced lever response at 10 mg/kg, ip pretreated with cocaine for 15 mins by drug-discrimination studies; format: functional; conditions: route intraperitoneal
Rattus norvegicus [13] = test: Effect on behavioural activity in rat assessed as cocaine-induced lever response at 20 mg/kg, po pretreated with cocaine for 45 mins by drug-discrimination studies; format: functional
Rattus norvegicus [14] = test: Effect on behavioural activity in rat assessed as cocaine-induced lever response at 20 mg/kg, po pretreated with cocaine for 360 mins by drug-discrimination studies; format: functional
Rattus norvegicus [15] = test: Effect on behavioural activity in rat assessed as cocaine-induced lever response at 10 mg/kg, po pretreated with cocaine for 90 mins by drug-discrimination studies; format: functional
Rattus norvegicus [16] = test: Effect on behavioural activity in rat assessed as cocaine-induced lever response at 40 mg/kg, po pretreated with cocaine for 45 mins by drug-discrimination studies; format: functional
Rattus norvegicus [17] = test: Effect on behavioural activity in rat assessed as cocaine-induced lever response at 2.5 mg/kg, po pretreated with cocaine for 90 mins by drug-discrimination studies; format: functional
Rattus norvegicus [18] = test: Effect on behavioural activity in rat assessed as cocaine-induced lever response at 5 mg/kg, po pretreated with cocaine for 360 mins by drug-discrimination studies; format: functional
Rattus norvegicus [19] = test: Effect on behavioural activity in rat assessed as cocaine-induced lever response at 80 mg/kg, po pretreated with cocaine for 45 mins by drug-discrimination studies; format: functional
Rattus norvegicus [20] = test: Effect on behavioural activity in rat assessed as cocaine-induced lever response at 40 mg/kg, po pretreated with cocaine for 180 mins by drug-discrimination studies; format: functional
Rattus norvegicus [21] = test: Effect on behavioural activity in po dosed rat assessed as cocaine-induced lever response pretreated with cocaine by drug-discrimination studies; format: functional
Rattus norvegicus [22] = test: Effect on behavioural activity in rat assessed as cocaine-induced lever response at 40 mg/kg, po pretreated with cocaine for 90 mins by drug-discrimination studies; format: functional
Rattus norvegicus [23] = test: Effect on behavioural activity in rat assessed as cocaine-induced lever response at 5 mg/kg, po pretreated with cocaine for 90 mins by drug-discrimination studies; format: functional
Rattus norvegicus [24] = test: Effect on behavioural activity in rat assessed as cocaine-induced lever response at 80 mg/kg, po pretreated with cocaine for 90 mins by drug-discrimination studies; format: functional
Rattus norvegicus [25] = test: Effect on behavioural activity in ip dosed rat assessed as cocaine-induced lever response pretreated with cocaine by drug-discrimination studies; format: functional
Rattus norvegicus [26] = test: Effect on behavioural activity in rat assessed as cocaine-induced lever response at 5 mg/kg, ip pretreated with cocaine for 15 mins by drug-discrimination studies; format: functional; conditions: route intraperitoneal
Rattus norvegicus [27] = test: Effect on behavioural activity in rat assessed as cocaine-induced lever response at 2.5 mg/kg, po pretreated with cocaine for 180 mins by drug-discrimination studies; format: functional
Rattus norvegicus [28] = test: Effect on behavioural activity in rat assessed as cocaine-induced lever response at 5 mg/kg, po pretreated with cocaine for 45 mins by drug-discrimination studies; format: functional
Rattus norvegicus [29] = test: Effect on behavioural activity in rat assessed as cocaine-induced lever response at 2.5 mg/kg, po pretreated with cocaine for 45 mins by drug-discrimination studies; format: functional
[30] = target: Sodium-dependent serotonin transporter (Homo sapiens, UniProt P31645); test: biochemical; format: cell-based, HEK293
Rattus norvegicus [31] = test: Effect on behavioural activity in rat assessed as cocaine-induced lever response at 10 mg/kg, po pretreated with cocaine for 45 mins by drug-discrimination studies; format: functional
Rattus norvegicus [32] = test: Effect on behavioural activity in rat assessed as cocaine-induced lever response at 2.5 mg/kg, ip pretreated with cocaine for 15 mins by drug-discrimination studies; format: functional; conditions: route intraperitoneal
Rattus norvegicus [33] = test: Effect on behavioural activity in rat assessed as cocaine-induced lever response at 10 mg/kg, po pretreated with cocaine for 360 mins by drug-discrimination studies; format: functional
Rattus norvegicus [34] = test: Effect on behavioural activity in rat assessed as cocaine-induced lever response at 20 mg/kg, po pretreated with cocaine for 180 mins by drug-discrimination studies; format: functional
Rattus norvegicus [35] = test: Effect on behavioural activity in rat assessed as cocaine-induced lever response at 25 mg/kg, ip pretreated with cocaine for 15 mins by drug-discrimination studies; format: functional; conditions: route intraperitoneal
Rattus norvegicus [36] = test: Effect on behavioural activity in rat assessed as cocaine-induced lever response at 20 mg/kg, po pretreated with cocaine for 90 mins by drug-discrimination studies; format: functional
Rattus norvegicus [37] = test: Effect on behavioural activity in rat assessed as cocaine-induced lever response at 80 mg/kg, po pretreated with cocaine for 180 mins by drug-discrimination studies; format: functional
Rattus norvegicus [38] = test: Effect on behavioural activity in rat assessed as cocaine-induced lever response at 40 mg/kg, po pretreated with cocaine for 360 mins by drug-discrimination studies; format: functional
Rattus norvegicus [39] = test: Effect on behavioural activity in rat assessed as cocaine-induced lever response at 200 mg/kg, po pretreated with cocaine for 45 mins by drug-discrimination studies; format: functional
Rattus norvegicus [40] = test: Effect on behavioural activity in rat assessed as cocaine-induced lever response at 5 mg/kg, ip pretreated with cocaine for 30 mins by drug-discrimination studies; format: functional; conditions: route intraperitoneal
Rattus norvegicus [41] = test: Effect on behavioural activity in rat assessed as cocaine-induced lever response at 25 mg/kg, po pretreated with cocaine for 180 mins by drug-discrimination studies; format: functional
Rattus norvegicus [42] = test: Effect on behavioural activity in rat assessed as cocaine-induced lever response at 25 mg/kg, po pretreated with cocaine for 360 mins by drug-discrimination studies; format: functional
Rattus norvegicus [43] = test: Effect on behavioural activity in rat assessed as cocaine-induced lever response at 25 mg/kg, po pretreated with cocaine for 90 mins by drug-discrimination studies; format: functional
Rattus norvegicus [44] = test: Effect on behavioural activity in rat assessed as cocaine-induced lever response at 100 mg/kg, po pretreated with cocaine for 90 mins by drug-discrimination studies; format: functional
Rattus norvegicus [45] = test: Effect on behavioural activity in rat assessed as cocaine-induced lever response at 25 mg/kg, po pretreated with cocaine for 45 mins by drug-discrimination studies; format: functional
Rattus norvegicus [46] = test: Effect on behavioural activity in rat assessed as cocaine-induced lever response at 50 mg/kg, po pretreated with cocaine for 360 mins by drug-discrimination studies; format: functional
Rattus norvegicus [47] = test: Effect on behavioural activity in rat assessed as cocaine-induced lever response at 50 mg/kg, po pretreated with cocaine for 90 mins by drug-discrimination studies; format: functional
Rattus norvegicus [48] = test: Effect on behavioural activity in rat assessed as cocaine-induced lever response at 100 mg/kg, po pretreated with cocaine for 360 mins by drug-discrimination studies; format: functional
Rattus norvegicus [49] = test: Effect on behavioural activity in rat assessed as cocaine-induced lever response at 50 mg/kg, po pretreated with cocaine for 180 mins by drug-discrimination studies; format: functional
Rattus norvegicus [50] = test: Effect on behavioural activity in rat assessed as cocaine-induced lever response at 25 mg/kg, ip pretreated with cocaine for 30 mins by drug-discrimination studies; format: functional; conditions: route intraperitoneal
Rattus norvegicus [51] = test: Effect on behavioural activity in rat assessed as cocaine-induced lever response at 200 mg/kg, po pretreated with cocaine for 360 mins by drug-discrimination studies; format: functional
Rattus norvegicus [52] = test: Effect on behavioural activity in rat assessed as cocaine-induced lever response at 50 mg/kg, po pretreated with cocaine for 45 mins by drug-discrimination studies; format: functional
[53] = target: Sodium-dependent noradrenaline transporter (Homo sapiens, UniProt P23975); test: Displacement of [125I]RTI55 from cloned human NET expressed in HEK293 cells; format: cell-based
Rattus norvegicus [54] = test: Effect on behavioural activity in rat assessed as cocaine-induced lever response at 100 mg/kg, po pretreated with cocaine for 45 mins by drug-discrimination studies; format: functional
Rattus norvegicus [55] = test: Effect on behavioural activity in rat assessed as cocaine-induced lever response at 200 mg/kg, po pretreated with cocaine for 180 mins by drug-discrimination studies; format: functional
Rattus norvegicus [56] = test: Effect on behavioural activity in rat assessed as cocaine-induced lever response at 200 mg/kg, po pretreated with cocaine for 90 mins by drug-discrimination studies; format: functional
Rattus norvegicus [57] = test: Effect on behavioural activity in rat assessed as cocaine-induced lever response at 100 mg/kg, po pretreated with cocaine for 180 mins by drug-discrimination studies; format: functional
Rattus norvegicus [58] = test: Effect on behavioural activity in rat assessed as cocaine-induced lever response at 2.5 mg/kg, ip pretreated with cocaine for 30 mins by drug-discrimination studies; format: functional; conditions: route intraperitoneal
Rattus norvegicus [59] = test: Effect on behavioural activity in rat assessed as cocaine-induced lever response at 10 mg/kg, po pretreated with cocaine for 180 mins by drug-discrimination studies; format: functional
Rattus norvegicus [60] = test: Effect on behavioural activity in rat assessed as cocaine-induced lever response at 10 mg/kg, ip pretreated with cocaine for 30 mins by drug-discrimination studies; format: functional; conditions: route intraperitoneal

Sodium-dependent serotonin transporter, sequence (P31645 whole entry): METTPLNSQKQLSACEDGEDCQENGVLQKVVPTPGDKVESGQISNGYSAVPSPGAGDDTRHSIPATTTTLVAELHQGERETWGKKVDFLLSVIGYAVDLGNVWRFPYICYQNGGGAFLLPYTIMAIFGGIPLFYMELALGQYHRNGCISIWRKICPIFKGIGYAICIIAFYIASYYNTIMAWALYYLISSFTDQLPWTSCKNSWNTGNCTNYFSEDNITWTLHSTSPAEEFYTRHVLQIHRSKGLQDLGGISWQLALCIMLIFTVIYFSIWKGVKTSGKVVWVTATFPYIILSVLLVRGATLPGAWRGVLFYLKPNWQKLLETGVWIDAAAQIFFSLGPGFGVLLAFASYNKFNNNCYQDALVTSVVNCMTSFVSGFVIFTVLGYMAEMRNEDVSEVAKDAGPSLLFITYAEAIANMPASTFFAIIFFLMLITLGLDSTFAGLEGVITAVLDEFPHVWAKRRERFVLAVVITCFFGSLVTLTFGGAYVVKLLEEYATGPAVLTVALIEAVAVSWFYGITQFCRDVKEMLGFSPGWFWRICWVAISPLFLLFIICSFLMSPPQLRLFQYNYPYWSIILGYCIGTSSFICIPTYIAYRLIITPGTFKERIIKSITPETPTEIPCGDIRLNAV
Sodium-dependent noradrenaline transporter, sequence (P23975 whole entry): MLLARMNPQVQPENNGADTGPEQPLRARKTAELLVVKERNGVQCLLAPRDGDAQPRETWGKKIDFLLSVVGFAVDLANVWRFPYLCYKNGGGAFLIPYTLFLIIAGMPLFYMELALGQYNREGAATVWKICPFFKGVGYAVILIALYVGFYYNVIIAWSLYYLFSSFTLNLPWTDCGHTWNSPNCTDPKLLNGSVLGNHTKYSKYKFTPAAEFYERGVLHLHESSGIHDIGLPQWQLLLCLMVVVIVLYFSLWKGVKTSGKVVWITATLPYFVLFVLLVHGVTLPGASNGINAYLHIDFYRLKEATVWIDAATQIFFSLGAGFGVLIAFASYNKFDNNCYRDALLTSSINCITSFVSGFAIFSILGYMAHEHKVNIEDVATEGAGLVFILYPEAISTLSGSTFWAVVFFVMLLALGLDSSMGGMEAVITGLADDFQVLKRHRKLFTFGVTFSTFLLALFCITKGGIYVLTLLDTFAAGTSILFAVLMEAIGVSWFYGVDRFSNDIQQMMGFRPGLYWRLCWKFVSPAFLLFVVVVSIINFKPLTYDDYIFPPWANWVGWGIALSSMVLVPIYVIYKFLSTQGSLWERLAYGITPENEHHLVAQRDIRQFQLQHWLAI

## CC(C(=O)c1cccc(Cl)c1)N1CCCCC1 (configuration not stated)
Rattus norvegicus [1]
  Activity: 16.5%
Rattus norvegicus [2]
  Activity: 32.7%
Mus musculus [3]
  Time to peak locomotor stimulation: 320 min
Mus musculus [4]
  Time: 30 min
Mus musculus [5]
  ED50: 34.7 mg/kg
Mus musculus [6]
  Activity: 45%
Rattus norvegicus [7]
  Activity: 7%
Rattus norvegicus [8]
  Activity: 33.7%

## CCCC(NC(C)(C)C)C(=O)c1cccc(Cl)c1 (configuration not stated)
Rattus norvegicus [9]
  Activity: 0%
Rattus norvegicus [10]
  Activity: 22%
Rattus norvegicus [11]
  Activity: 1%
Rattus norvegicus [12]
  Activity: 33.3%
Rattus norvegicus [13]
  Activity: 33%
Rattus norvegicus [14]
  Activity: 0%
Rattus norvegicus [15]
  Activity: 0%
Rattus norvegicus [16]
  Activity: 50%
Mus musculus [3]
  Time to peak locomotor stimulation: 90 min
Rattus norvegicus [17]
  Activity: 0%
Mus musculus [4]
  Time: 210 min
Rattus norvegicus [18]
  Activity: 0%
Rattus norvegicus [19]
  Activity: 100%
Rattus norvegicus [20]
  Activity: 17%
Rattus norvegicus [21]
  ED50: 23.2 mg/kg
Rattus norvegicus [22]
  Activity: 17%
Mus musculus [5]
  ED50: 15.5 mg/kg
Rattus norvegicus [23]
  Activity: 0%
Rattus norvegicus [24]
  Activity: 100%
Rattus norvegicus [25]
  ED50: 7.8 mg/kg
Rattus norvegicus [26]
  Activity: 17.2%
Rattus norvegicus [27]
  Activity: 0%
Rattus norvegicus [28]
  Activity: 17%
Rattus norvegicus [29]
  Activity: 0%
[30]
  Ki: > 10 µM
Rattus norvegicus [31]
  Activity: 33%
Rattus norvegicus [32]
  Activity: 0.2%
Rattus norvegicus [33]
  Activity: 0%
Rattus norvegicus [34]
  Activity: 0%
Rattus norvegicus [35]
  Activity: 83.3%
Rattus norvegicus [36]
  Activity: 33%
Mus musculus [6]
  Activity: 108%
Rattus norvegicus [37]
  Activity: 50%
Rattus norvegicus [38]
  Activity: 16%

## CC(NC(C)(C)C)C(=O)c1cccc(Br)c1 (configuration not stated)
Rattus norvegicus [9]
  Activity: 33%
Rattus norvegicus [39]
  Activity: 100%
Rattus norvegicus [10]
  Activity: 0%
Rattus norvegicus [40]
  Activity: 34.4%
Rattus norvegicus [41]
  Activity: 0%
Rattus norvegicus [42]
  Activity: 0%
Rattus norvegicus [15]
  Activity: 0%
Rattus norvegicus [43]
  Activity: 0%
Mus musculus [3]
  Time to peak locomotor stimulation: 0 min
Rattus norvegicus [44]
  Activity: 56%
Rattus norvegicus [17]
  Activity: 0%
Rattus norvegicus [45]
  Activity: 17%
Mus musculus [4]
  Time: 90 min
Rattus norvegicus [18]
  Activity: 7%
Rattus norvegicus [46]
  Activity: 0%
Rattus norvegicus [47]
  Activity: 21%
Rattus norvegicus [21]
  ED50: 52.9 mg/kg
Mus musculus [5]
  ED50: 13.5 mg/kg
Rattus norvegicus [23]
  Activity: 15%
Rattus norvegicus [48]
  Activity: 14%
Rattus norvegicus [49]
  Activity: 0%
Rattus norvegicus [50]
  Activity: 83.6%
Rattus norvegicus [25]
  ED50: 39.6 mg/kg
Rattus norvegicus [27]
  Activity: 0%
Rattus norvegicus [28]
  Activity: 0%
Rattus norvegicus [51]
  Activity: 34%
Rattus norvegicus [29]
  Activity: 13%
Rattus norvegicus [52]
  Activity: 51%
[30]
  Ki: > 10 µM
Rattus norvegicus [31]
  Activity: 0%
[53]
  Ki: > 7.14 µM
Rattus norvegicus [33]
  Activity: 0%
Rattus norvegicus [54]
  Activity: 67%
Rattus norvegicus [55]
  Activity: 5%
Mus musculus [6]
  Activity: 57%
Rattus norvegicus [56]
  Activity: 100%
Rattus norvegicus [57]
  Activity: 34%
Rattus norvegicus [58]
  Activity: 0.3%
Rattus norvegicus [59]
  Activity: 0%
Rattus norvegicus [60]
  Activity: 21%
